# According to patent US8501734B2, “Medical intervention in haematological cancers” (Oncotyrol-Center for Personalized Cancer Medicine GmbH …, priority 2008, dated 2013):
# Test system: OPM2 cells
# Test: Annexin V/PI apoptosis assay (FACS), OPM2 cells
# Assay type: cell-based
# Parameters: apoptosis induction: unit not given here
# Method: After treatment adherent cells were trypsinized (as described before), and resuspended in corresponding full medium. Suspension cells or trypsinized adherent cells, supernatant and washing solution (1×PBS from washing before trypsinization) were pooled and then spun down (300 g for 3 min) washed in 2 ml and resuspended in 1000 of annexin V binding buffer and mixed with 2 μg/ml annexin V-Allophycocyanin (APC) (BD-Pharmingen, San Diego, Calif., USA) and 50 ng/ml of propidium iodide (PI; Sigma Aldrich). At least 10.000 cells were measured per sample using a Becton Dickinson FACSCalibur flow Cytometer (San Jose, Calif., USA). Percentage of Annexin V negative and PI negative cells were depicted in the figures. For the analysis of the pro-apoptotic activity of Imiquimod® in primary MM cells and non-malignant BMMCs, 5×10^5 cells BMMCs cells were treated with or without 40 μg/ml Imiquimod® for the indicated time periods. Cells were then harvested and washed twice with PBS. Detection of apoptotic cells was performed using the annexin V/PI assay according to manufacturers' instruction. Briefly, BMMCs were stained with a mixture of annexin V/FITC (Alexis Coorp., Laeufelfingen, Switzerland), propidium iodide (Sigma), anti-CD38-PE and anti-CD45-PC5 for 15 min at room temperature and immediately analyzed by flow cytometry. The percentages of viable cells (i.e. cells negative for annexin V/FITC and PI) within the MM (CD38^posCD45^low/absent) and non-MM fraction (CD38^neg/CD45^pos) were determined by flow cytometry.
# Cells were cultured as described before and, treated with 40 μg/ml Imiquimod® or Gardiquimod® for 24 h, and apoptosis was assayed by AnnexinV/PI staining and FACS analysis.
# Adherent cells were grown in 24-well plates to confluence and treated with 40 μg/ml Imiquimod® for 24 h. Cells were then trypsinized, suspended in full medium, stained for AnnexinV/PI and apoptosis was measured as described before. Suspension cells (250.000) were treated with 40 μg/ml Imiquimod® for 24 h, stained for Annexin/PI and apoptosis was measured as described above (Annexin V/Propidium Iodide apoptosis Assay).
# OPM-2 and U266 cells (2.5×10^5 in 500 μl) were treated with either Imiquimod® alone (10 μg/500 μl), various inhibitors/drugs alone or with the combination of Imiquimod® and inhibitors for 24 or 48 h. In the controls the solvent of the drug has been added in appropriate amounts. Cells were then AnnexinV/PI stained and apoptosis measured as described before.
compound,measurement,setting,value
"CC(C)Cn1cnc2c(N)nc3ccccc3c21 [Imiquimod, 1-(2-methylpropyl)-1H-imidazo[4,5-c]quinolin-4-amine]",apoptosis induction,"OPM2 cells, 24 h, Imi 20 μg/ml alone",+
same,"apoptosis induction, single agent","OPM2 cells, 24 h, Imiquimod 20 μg/ml or Akt inhibitor alone",some apoptosis
same,apoptosis induction,"OPM2 cells, 48 h, Imi 20 μg/ml alone",++
same,apoptosis induction,"multiple myeloma cells, 10 μg/ml, 24 h",apoptosis induction
same,apoptosis induction in AnnexinV/PI FACS analysis assay,"multiple myeloma cells, 40 μg/ml",70%
